The text below walks through data of US20080095741A1, “R-(+)-alpha-liponic acid for the prevention of diabetes” (MEDA Pharma GmbH & Co. KG, priority 2004, published 2008).

Where two headings read alike, the source gives them in different places.

Test [1] has as its system β cells. The note with it: Kaneto et al., 1999; cited from earlier work.
The test system of test [2] is biobreed rat. Nature of the test: Preventive therapy in the biobreed rat model of diabetes (occurrence and progression). It counts as in vivo. From the text:
The experiments for the primary and secondary prevention of diabetes with α-lipoic acid or its derivatives were investigated using a suitable model system. The biobreed rat is a model of diabetes in which a primary loss of p cells also occurs on account of autoimmune processes. […] A secondary stress of the p cells occurs with the simultaneous development of hyperglycemia on account of the increasing glucose toxicity. Thus, pathogenic processes are reflected in this model that stand in the foreground of the progression of the disease and contribute to the progression in all forms of diabetes.
A preventive therapy with racemic α-lipoic acid as well as the two enantiomers took place in the biobreed rat.
This allows the conclusion that for the primary and secondary prevention of diabetes only the R-configured, dextrorotary enantiomer is suitable, as well as derivatives derived from it with intact dithiolane structure. This can be used just as suitably for the prevention of the secondary loss of function of β cells after transplantation.

The test system of test [3] is NOD mouse. The settings on record: Faust et al., 1994, cited from earlier work.
The subject of test [4] is isolated pancreatic cells. The settings on record: pre-incubation; radical-generating system or activated macrophages; Burkart et al., 1993; cited from earlier work.
In test [5] the test system is Biobreed rats. Kind of test: Biobreed rat, development and progression of diabetes determined by daily measuring of the blood sugar as surrogate. The test is classed as in vivo. The settings on record: chronic ip, tromethamine salt, blood from the caudal vein. The protocol: Biobreed rats (male and female, 130-180 g) 5-19 weeks old were chronically treated (ip) with different doses of R-(+)-α-lipoic acid as tromethamine salt. The development and progression of diabetes was determined by daily measuring of the blood sugar (taken from the caudal vein) as surrogate. […] Biobreed rats (male and female, 130-180 g) 5-19 weeks old were each chronically treated with 36.6 mg of different lipoic acid derivatives (as tromethamine salt (ip)). with as tromethamine salt. The development and progression of diabetes was determined by daily measuring of the blood sugar (taken from the caudal vein) as surrogate.

Test [6] relates to Biobreed rats. Kind of test: Biobreed rat, development and progression of diabetes determined by weight loss as surrogate. The test is classed as in vivo. The settings on record: chronic ip, tromethamine salt. The procedure:
Biobreed rats (male and female, 130-180 g) 5-19 weeks old were chronically treated (ip) with different doses of R-(+)-α-lipoic acid as tromethamine salt. The development and progression of diabetes was determined by weight loss as surrogate. […] Biobreed rats (male and female, 130-180 g) 5-19 weeks old were each chronically treated (ip) with 36.6 mg of different lipoic acid derivatives (as tromethamine salt). The development and progression of diabetes was determined by daily weight measuring as surrogate.

The subject of test [7] is Biobreed rats. Nature of the test: Biobreed rat, survival time and water consumption as further surrogates. The test is classed as in vivo. The settings on record: dose-dependent. The protocol: The survival time and the water consumption were determined as further surrogates for the occurrence and deterioration of diabetes.

Take `CC(=O)N[C@@H](CS)C(=O)O` [N-acetylcystein]: the “effect on the glucose toxicity of β cells” value in test [1] is recorded as “a certain protective action”.
With `O=C(O)CCCC[C@H]1CCSS1` (single isomer, unassigned) [S-(−)- enantiomer], in test [2], the occurrence of diabetes result is recorded as “remained without effect” and the “progression of manifest diabetes” value is recorded as “remained without effect”.
In the case of `O=C(O)CCCCC1CCSS1` (racemic) [racemic mixture], in test [3] (chronic administration, without cytotoxin), the “infiltration with immunocompetent cells into pancreatic tissue (surrogate of β cell destruction)” value was “had no influence”. For the same compound, in test [3] (with additional intoxication with cyclophosphamide), the protective action entry was “protective action”. Further, in test [2], the occurrence of diabetes entry was “remained without effect” and the “progression of manifest diabetes” value is reported as “remained without effect”.
Regarding `O=C(O)CCCC[C@@H](S)CCS` (racemic) [racemic dihydrolipoic acid], in test [4], the “protection of pancreatic cells from lysis” value is given as “partially protected from lysis”.
As for `O=C(O)CCCCC1CCSS1` (stereo not drawn) [R-(+)-α-lipoic acid, 1,2-dithiolane-3-pentanoic acid], the “progression of a rise in blood sugar” value in test [5] (Example 3, different doses) is listed as “delayed progression of a rise in blood sugar in a dose-dependent manner”. Also, the “progression of diabetes (daily blood sugar as surrogate)” value in test [5] (Example 4, 36.6 mg) was “had an effect on the progression of diabetes”. For the same compound, the “progression of diabetes (weight loss as surrogate)” value in test [6] (Example 1, different doses) was “delayed progression of diabetes in a dose-dependent manner”. Also, in test [6] (Example 2, 36.6 mg), the “progression of diabetes (daily weight measuring as surrogate)” value is “had an effect on the progression of diabetes”. In addition, in test [7], the “increase of the consumption of water” value is “positive effect” and the survival time result is given as “positive effect”. In test [2] (listed as R-(+)-enantiomer), the occurrence of diabetes result is listed as “can be delayed” and the “progression of manifest diabetes” value is “distinctly attenuated in a dose-dependent manner”.
Turning to vitamin E, the “effect on the glucose toxicity of β cells” value in test [1] is recorded as “no effect”.
